# Laboratory results taken from article PMC7719179, “Small molecule inhibition of Dynamin-dependent endocytosis targets multiple niche signals and impairs leukemia stem cells” (Nature Communications, 2020).
# Values joined by “and” are separate entries in the source; they are usually repeats but may differ in a detail not shown here. Identical values can stand only once.
# Key:
# pre-LSC self-renewal = test: Serial transplantation assay of thymocytes from treated Lmo2^Tg mice; format: in vivo, mouse
# Protocol: For primary transplantation, single-cell suspension of 2 × 10^6 thymocytes were intravenously injected into sublethally irradiated (650 Rads) isogenic Ly5.1 (Cd45.1) mice. Analysis was performed 4 weeks after transplantation and 5 × 10^6 thymocytes harvested from recipients were subsequently injected into sublethally irradiated (650 Rads) Ly5.1 (Cd45.1) recipients for the secondary and tertiary transplantations, as previously described.
# Supplementary Figure 3. In vivo effect of Dynole 34-2. a, Treatment schematic and pharmacokinetic analysis of serum levels (µ M) of Dynole 34-2 at different time points (15, 30, 60, 120 and 240 minutes) following a single intraperitoneal injection (grey arrow) in 5 recipients (A, B, C, D, E). Average maximum concentration (Cmax), the time taken to reach this maximum concentration (Tmax), and the half-life (T 1/2) of Dynole 34-2 in the serum of treated mice are indicated.
# Average concentration for each time point is indicated (bar). b , Treatment schematic and fold expansion of donor-derived L mo2-transgenic DN3a thymocytes enumerated in the thymus of primary (I), secondary (II) and tertiary (III) recipients, assessed four weeks after transplantation of cells harvested from 5 independent mice per cohort of donors. Number of recipients engrafted for each condition is indicated. Mean ± SD (N = number of independent mice analysed), Student’s t-test;
# hematopoietic stem cells = test: Competitive transplant with bone marrow cells from treated WT mice (HSC activity); format: in vivo
# Protocol: induction-like therapy (VXL) or combination therapy was administered. Mean ± SEM, 2-way ANOVA […]
# murine B (CD19+ B220+), T (CD3+) and Myeloid (Gr-1 + CD11b+ granulocytes and monocytes) cells (c ), as well as Lineage-negative Kit-positive (Lin -Kit+, LK) progenitors, different populations of multipotent progenitors (MPP) and hematopoietic stem cells (HSC; d) from the bone marrow of WT […]
# administered. Vehicle was used as control. e, Experimental schematic of competitive transplant […]
# harvested from isogenic Cd45.1+ mice. These cells were injected into lethally -irradiated recipients, and lineage reconstitution was monitored every 4 weeks, until 20 weeks post-transplantation when BM was harvested for analysis. f, Percent of donor -derived (Cd45.2 +) cells among all peripheral blood cells at 4, 8, 12, 16 and 20 weeks post- transplant. g-h , Absolute numbers of donor-derived (Cd45.2+) lineage-committed (B, and Myeloid) cells ( g), as well as LK, MPP populations and HSCs (h ) harvested from the BM of recipients at 20 weeks post- transplant. Mean ± SEM, 2-way ANOV A with Tukey’s correction test; *P<0.05, *** P<0.001 compared to vehicle; #P<0.05, ##P<0.01, ###P<0.001 compared to VXL. ns = not statistically significant.
# [1] = test system: HES1 in patient-derived ETP-ALL and T-ALL cells; test: NOTCH1-induced HES1 in human ETP-ALL and T-ALL xenograft cells; format: cell-based; conditions: for HES1 relative expression, FOLD: fold over unstimulated
# Protocol: Splenocytes from secondary xenografts were processed as previously described. […] Flow cytometric analysis of surface IL-7R levels and intracellular levels of pSTAT5 were performed as described in the FACS analysis section. For activation of NOTCH1-mediated signalling, 5 × 10^5 rested leukemia cells were seeded on OP9-DL1 stromal cells. Co-culture on OP9 stromal cells was used as a negative control. After 16 h of co-culture, leukemia cells were washed twice using cold PBS 1×. Flow cytometric analysis of NOTCH1 expression and intracellular levels of HES1 were performed as described in the FACS analysis section.
# [2] = test system: ETP12 and ALL8 patient-derived xenografts; test: Survival (Kaplan-Meier) and leukemia growth delay in ETP12 and ALL8 xenograft recipients; format: in vivo, human
# Protocol: Patient-derived xenograft models were established as previously described[97],[98]. All experiments were pre-approved by the Human Research Ethics Committee of the University of New South Wales (UNSW), the UNSW Animal Care and Ethics Committee, the Alfred Health Human Ethics Committee and the AMREP Animal Ethics Committee. For transplantation assays, 10^6 splenocytes harvested from successfully engrafted primary human ETP-ALL or T-ALL xenografts were injected into nonobese diabetic/severe combined immunodeficient (NOD.Cg-Prkdc^scid, also termed NOD/SCID) or NOD/SCID/Il2rg^tm1wjl/SzJ (NSG) mice[99]. Moreover, 1.5 × 10^6 cells splenocytes harvested from successfully engrafted patient-derived AML xenografts were injected into nonobese diabetic/severe immunodeficient (NOD.Cg-Rag1^tm1MomIl2rg^tm1wjl/SzJ, also termed NRG) mice expressing human IL-3, human GM-CSF and human SCF from the SGM3 triple transgene (NRGS)[100]. Engraftment into recipients was monitored by FACS analysis of peripheral blood as previously described. […] Both males and females were used. […] Kaplan–Meier survival and statistical analyses were performed using GraphPad Prism. 6.0 software (GraphPad Software, Inc.). […]
# (blue circles) and ALL8 (red open circles) 24 hours after the last dose of drugs was administered.
# therapy. Median is indicated (bar) with Mean ± SEM indicated for ETP12 and ALL8, 2-way ANOVA
# period of administration is indicated in light grey.
structure (smiles),measurement,setting,value
"CCCCCCCCNC(=O)C(C#N)=Cc1cn(CCCN(C)C)c2ccccc12 [Dynole 34-2, 2-Cyano-N-octyl-3-(1-(3-dimethylaminopropyl)-1H-indol-3-yl)-acrylamide]",repopulating activity in serial transplantation,"pre-LSC self-renewal; tertiary recipients, result in words",complete loss of repopulating activity
same,Fold expansion DN3a cells,pre-LSC self-renewal; transplant III,0.1 fold and 0.11 fold
same,Absolute numbers of Cd45.2+ cells in the bone marrow: B cells,hematopoietic stem cells; Supplementary Figure 5g-h,3150000 and 4270000 and 3310000 and 4360000
same,Absolute numbers of Cd45.2+ cells in the bone marrow: LK,hematopoietic stem cells; Supplementary Figure 5g-h,231000 and 185000 and 205000 and 163000 and 160000
same,Absolute numbers of Cd45.2+ cells in the bone marrow: Myeloid cells,hematopoietic stem cells; Supplementary Figure 5g-h,955000 and 1600000 and 1200000 and 1410000 and 1720000
same,Absolute numbers of Cd45.2+ cells in the bone marrow: T cells,hematopoietic stem cells; Supplementary Figure 5g-h,471000 and 332000 and 364000 and 374000 and 460000
same,effect on HSC fitness and differentiation potential,"hematopoietic stem cells; competitive transplant of bone marrow from treated mice, result in words",no detrimental effect on HSC fitness and differentiation potential
same,Proportion of CD45.2+ (%) in peripheral blood,hematopoietic stem cells; week 4,40.53% and 37.56% and 37.9% and 34.3% and 35.3%
same,Proportion of CD45.2+ (%) in peripheral blood,hematopoietic stem cells; week 8,36.97% and 46.65% and 45.78% and 44.9% and 43.63%
same,Proportion of CD45.2+ (%) in peripheral blood,hematopoietic stem cells; week 12,46.54% and 48.81% and 42.82% and 42.23% and 46.32%
same,Proportion of CD45.2+ (%) in peripheral blood,hematopoietic stem cells; week 16,42.09% and 57% and 54.04% and 43.93% and 53.26%
same,Proportion of CD45.2+ (%) in peripheral blood,hematopoietic stem cells; week 20,50.7% and 47.2% and 59.8% and 59.3% and 53.24%
same,"HES1 relative expression, MFI",[1]; ALL8,4877 MFI and 4405 MFI
same,"HES1 relative expression, FOLD",[1]; ALL8,0.60 FOLD and 0.67 FOLD
same,"HES1 relative expression, MFI",[1]; ALL16,5772 MFI and 5666 MFI
same,"HES1 relative expression, FOLD",[1]; ALL16,0.83 FOLD and 0.85 FOLD
same,"HES1 relative expression, MFI",[1]; ALL29,5243 MFI and 5145 MFI
same,"HES1 relative expression, FOLD",[1]; ALL29,0.70 FOLD and 0.71 FOLD
same,"HES1 relative expression, MFI",[1]; ALL31,5977 MFI and 5691 MFI
same,"HES1 relative expression, FOLD",[1]; ALL31,0.71 FOLD and 0.74 FOLD
same,"HES1 relative expression, MFI",[1]; ALL33,6590 MFI and 6678 MFI
same,"HES1 relative expression, FOLD",[1]; ALL33,0.90 FOLD and 0.89 FOLD
same,"HES1 relative expression, MFI",[1]; ETP1,6721 MFI and 6600 MFI
same,"HES1 relative expression, FOLD",[1]; ETP1,0.88 FOLD and 0.90 FOLD
same,"HES1 relative expression, MFI",[1]; ETP5,7460 MFI and 7513 MFI
same,"HES1 relative expression, FOLD",[1]; ETP5,0.72 FOLD
same,"HES1 relative expression, MFI",[1]; ETP8,6107 MFI and 5672 MFI
same,"HES1 relative expression, FOLD",[1]; ETP8,0.72 FOLD and 0.78 FOLD
same,"HES1 relative expression, MFI",[1]; ETP12,6018 MFI and 5803 MFI
same,"HES1 relative expression, FOLD",[1]; ETP12,0.87 FOLD and 0.89 FOLD
same,"HES1 relative expression, MFI",[1]; ETP13,4629 MFI and 4445 MFI
same,"HES1 relative expression, FOLD",[1]; ETP13,0.69 FOLD and 0.72 FOLD
same,"HES1 relative expression, MFI",[1]; ETP14,4477 MFI and 4496 MFI
same,"HES1 relative expression, FOLD",[1]; ETP14,0.89 FOLD and 0.86 FOLD
same,HES1 protein levels,"[1]; immature and mature subtypes of human T-ALL, result in words",significantly decreased
same,"survival of recipients, single agent","[2]; ETP12 and ALL8 xenografts, result in words",significant survival advantage
same,Leukemia Growth Delay (LGD) Over Vehicle,[2]; PDX ALL8,2.62 days
same,Leukemia Growth Delay (LGD) Over Vehicle,[2]; PDX ETP12,7.34 days
same,Time to leukemia,[2]; PDX ETP12,4.63 weeks and 5.6 weeks and 4.86 weeks and 4.8 weeks and 5.54 weeks and 4.7 weeks and 4.81 weeks and 6.67 weeks
